A value given as a limit tells only on which side of the number the result lay.

Experimental findings from patent publication US20150259295A1, “SUBSTITUTED PYRAZOLE COMPOUNDS AS LPAR ANTAGONISTS” (Hoffmann-La Roche Inc., priority 2012, published 2015) are described below.

For experiment [1], the target named is human recombinant LPA1 Lysophospholipid receptor (Homo sapiens, UniProt Q92633). Briefly: Calcium flux assay using FLIPR, LPA1R antagonist activity. In kind it is cell-based. Particulars: ChemiScreen calcium-optimized stable cell line, FLIPR calcium flux, antagonist mode. Here is the method:
(§1) Calcium Flux Assay Using Fluorometric Imaging Plate Reader (FLIPR)
Cell Culture Conditions: The ChemiScreen Calcium-optimized stable cell line containing the human recombinant LPA1 Lysophospholipid receptor was purchased from Chemicon International, Inc./Millipore. The cells were cultured in DMEM-high glucose supplemented with 10% fetal bovine serum, 2 mM glutamine, 100 U/mL penicillin/100 μg/mL streptomycin, 1× non-essential amino acids, 10 mM HEPES and 0.25 mg/mL Geneticin. Cells were harvested with trypsin-EDTA and counted using ViaCount reagent. The cell suspension volume was adjusted to 2.0×10^5 cells/mL with complete growth media. Aliquots of 50 μL were dispensed into 384 well black/clear tissue culture treated plates (BD) and the microplates were placed in a 37° C. incubator overnight. The following day plates were used in the assay.
Dye Loading and Assay: Loading Buffer (FLIPR Calcium-4, Molecular Devices) was prepared by dissolving the contents of one bottle into 100 mL Hank's Balanced Salt Solution containing 20 mM HEPES and 2.5 mM probenecid. Plates were loaded onto Biotek plate washer and growth media was removed and replaced with 20 µL of Hank's Balanced Salt Solution containing 20 mM HEPES and 2.5 mM probenecid, followed by 25 μL of Loading Buffer. The plates were then incubated for 30 minutes at 37° C.
During the incubation, test compounds were prepared by adding 90 μL of HBSS/20 mM HEPES/0.1% BSA buffer to 2 μL of serially diluted compounds. To prepare serial dilutions, 10 mM stocks of compounds were prepared in 100% DMSO. The compound dilution plate was set up as follows: well #1 received 29 μL of stock compound and 31 μL DMSO; wells 2-10 received 40 μL of DMSO; mixed and transferred 20 μL of solution from well #1 into well #2; continued with 1:3 serial dilutions out 10 steps; transferred 2 μL of diluted compound into duplicate wells of 384 well “assay plate” and then added the 90 μL of buffer.
(§2) After incubation, both the cell and “assay” plates were brought to the FLIPR and 20 μL of the diluted compounds were transferred to the cell plates by the FLIPR. Compound addition was monitored by FLIPR to detect any agonist activity of the compounds. Plates were then incubated for 30 minutes at room temperature protected from light. After the incubation, plates were returned to the FLIPR and 20 μL of 4.5× concentrated agonist was added to the cell plates. During the assay, fluorescence readings were taken simultaneously from all 384 wells of the cell plate every 1.5 seconds. Five readings were taken to establish a stable baseline, then 20 μL of sample was rapidly (30 μL/sec) and simultaneously added to each well of the cell plate. The fluorescence was continuously monitored before, during and after sample addition for a total elapsed time of 100 seconds. Responses (increase in peak fluorescence) in each well following agonist addition was determined. The initial fluorescence reading from each well, prior to ligand stimulation, was used as zero baseline value for the data from that well. The responses were expressed as % inhibition of the buffer control.
(A change in cytosolic calcium serves as a functional read-out for many receptors and channels.)

Experiment [2] addresses T1, LPA3R (Homo sapiens, UniProt Q9UBY5).
T1 sequence (Q9UBY5 1-353): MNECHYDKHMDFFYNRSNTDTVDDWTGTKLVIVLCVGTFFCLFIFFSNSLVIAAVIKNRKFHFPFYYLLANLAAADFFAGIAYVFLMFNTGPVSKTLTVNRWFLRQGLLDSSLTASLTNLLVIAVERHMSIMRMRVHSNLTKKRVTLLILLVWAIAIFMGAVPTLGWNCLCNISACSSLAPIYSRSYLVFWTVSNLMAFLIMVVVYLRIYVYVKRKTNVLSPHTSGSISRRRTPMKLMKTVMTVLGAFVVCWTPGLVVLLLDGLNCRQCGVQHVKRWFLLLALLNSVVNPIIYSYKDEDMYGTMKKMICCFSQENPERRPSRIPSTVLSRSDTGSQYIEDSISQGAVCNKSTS
The experiment in a line: LPA3R antagonist activity (Table 1, calcium flux FLIPR). In kind it is cell-based. The method, then:
as §1, §2

human recombinant LPA1 Lysophospholipid receptor, sequence (Q92633 whole entry): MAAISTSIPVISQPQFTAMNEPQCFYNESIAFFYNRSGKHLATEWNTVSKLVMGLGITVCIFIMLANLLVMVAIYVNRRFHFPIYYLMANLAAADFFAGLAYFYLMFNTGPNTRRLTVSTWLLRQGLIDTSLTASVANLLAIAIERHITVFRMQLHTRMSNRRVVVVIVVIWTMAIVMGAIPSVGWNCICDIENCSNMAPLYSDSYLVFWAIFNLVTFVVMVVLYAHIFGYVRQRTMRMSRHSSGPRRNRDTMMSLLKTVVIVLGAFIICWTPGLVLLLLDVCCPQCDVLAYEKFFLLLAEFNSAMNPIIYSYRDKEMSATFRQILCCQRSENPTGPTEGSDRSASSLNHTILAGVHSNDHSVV

With `C[C@@H](OC(=O)Nc1c(-c2ccc(-c3ccc(CC(=O)O)cc3)cc2)cnn1C)c1ccccc1` [Example 2, {4′-[1-Methyl-5-((R)-1-phenyl-ethoxycarbonylamino)-1H-pyrazol-4-yl]-biphenyl-4-yl}-acetic acid], the values for the IC50 in experiment [1] and in experiment [2] were 35 nM and > 30000 nM, respectively.
For `CC(C)[C@@H](C)OC(=O)Nc1c(-c2ccc(-c3ccc(C4(C(=O)O)CC4)cc3)cc2)cnn1C` [Example 15, (R)-1-{4′-[5-(1,2-Dimethyl-propoxycarbonylamino)-1-methyl-1H-pyrazol-4-yl]-biphenyl-4-yl}-cyclopropanecarboxylic acid] the same measures were 107 nM and > 30000 nM.
For `CC(OC(=O)Nc1c(-c2ccc(-c3ccc(C4(C(=O)O)CC4)cc3)cc2)cnn1C)c1ccc(F)cc1` (stereo not drawn) [Example 18, 1-{4′-[5-((1-(4-fluorophenyl)ethoxy)carbonylamino)-1-methyl-1H-pyrazol-4-yl]-biphenyl-4-yl}-cyclopropanecarboxylic acid] the same measures were 57 nM and 8260 nM.

The IC50 is the midpoint of a concentration-inhibition curve.
